Measured values taken from article PMC3758303 (PLoS ONE, 2013).

Tests used:
[1] = system: genome-length HCV-RNA (O strain of genotype 1b) replication in Li23-derived ORL8 cells; assay: ORL8 RL assay; type: cell-based, hepatitis C virus; details: for EC50: Hepatitis C virus, Li23, HCV strain O, 72 hrs, RL assay
Protocol: RSc and D7 cells were derived from the cell lines HuH-7 and Li23, respectively, were cultured as described previously, [29]. HuH-7-derived OR6 [13], AH1R [30], and 1B-4R [Ikeda et al., submitted] cells harboring genome-length HCV-RNA and HuH-7-derived polyclonal sOR [31], and RSc-JRN/35B [Ikeda et al., submitted] cells harboring an HCV subgenomic replicon were cultured with medium in the presence of G418 (0.3 mg/ml; Geneticin, Invitrogen, Carlsbad, CA) as described previously. Li23-derived ORL8 [20], ORL11 [20], 1B-4RL [Ikeda et al., submitted], and KAH5RL [Ikeda et al., submitted] cells harboring genome-length HCV-RNA were maintained with medium in the presence of G418 (0.3 mg/ml) as described previously. Li23-derived polyclonal sORL8 and sORL11 cells harboring an HCV replicon, which were established by the transfection of ORN/3-5B/QR,KE,SR RNA into the cured OL8 and OL11 cells, respectively, were also cultured with medium in the presence of G418 (0.3 mg/ml) as described previously. […] Therefore, when HCV-RNA is excluded from the cells or when its level is decreased, the cells are killed in the presence of G418.
RL assay was performed as described previously, [24]. Briefly, the cells were plated onto 24-well plates (2×10^4 cells per well) in triplicate and then treated with each reagent at several concentrations for 72 hrs. After treatment, the cells were subjected to luciferase assay using the RL assay system (Promega, Madison, WI). The experiments were performed at least in triplicate. From the assay results, the 50% effective concentration (EC50) of each reagent was determined.
The SI value of each reagent was determined by dividing the CC50 value by the EC50 value.

[2] = Viability of RSc-JRN/35B cells (WST-1, trypan blue cell counting); type: cell-based, human; details: human, read-out: viable cells by cell counting after trypan blue dye treatment
Protocol: The WST-1 cell proliferation assay was performed as described previously. Briefly, The cells were plated onto 96-well plates (1×10^3 cells per well) in triplicate and then treated with each reagent at several concentrations for 72 hrs. After treatment, the cells were subjected to the WST-1 cell proliferation assay (Takara Bio, Otsu, Japan) according to the manufacturer’s protocol. This assay is based on the enzymatic cleavage of the tetrazolium salt WST-1 to formazan by cellular mitochondrial dehydrogenases present in viable cells. Therefore, there are […] the value of the WST-1 assay becomes zero. The experiments were performed at least in triplicate. From the assay results, the 50% cytotoxic concentration (CC50) of each reagent was determined.
We next examined whether N-89 and N-251 worked in an HCV production system using HCV-JFH-1 strain (genotype 2a). […] To clarify whether anti-HCV activity depends on the difference of genotype or assay model, we evaluated the activities of N-89 and N-251 using RSc-JRN/35B [Ikeda et al., submitted] cells harboring a subgenomic HCV-JFH-1 replicon as an additional assay.

[3] = system: malaria parasites; parameters: method as in PMID 21501696, PMID 21924377; details: compared with N-89; cited from earlier work
[4] = system: HCV-RNA in OR6 cells; assay: Curing of OR6 cells by N-89 treatment (G418 selection, Western blot); type: cell-based, hepatitis C virus; details: 8 µM, 3 weeks, addition at 4-day intervals, absence of G418
Protocol: (§1) To date, IFN-α alone or IFN-γ alone has generally been used to prepare cured cells from the cells harboring HCV-RNA [36]. Since we observed strong anti-HCV activity (>99% suppression) at 8 µM of N-89 in OR6 cells or 1 µM of N-89 in ORL8 cells without a decrease in cell viability (Fig. 1B), we expected that these cells might be cured only by treatment with N-89. Accordingly, OR6 and ORL8 cells were treated with 8 µM and 1 µM of N-89, respectively, in the absence of G418. The treatment was continued for 3 weeks with the addition of N-89 at 4-day intervals.
(§2) Figure 3 OR6 and ORL8 cells were cured by treatment with only N-89. The treated cells were divided into two plates with or without G418, and then cultured for 2 weeks. The left panels show the cells stained with Coomassie brilliant blue. The right panels show the results of Western blot analysis of the treated and non-treated cells for HCV proteins. Western blot analysis was performed as described in Fig. 1B.

[5] = system: HCV-RNA in ORL8 cells; assay: Curing of ORL8 cells by N-89 treatment (G418 selection, Western blot); type: cell-based, hepatitis C virus; details: 1 µM, 3 weeks, addition at 4-day intervals, absence of G418
Protocol: as §1, §2

[6] = system: HCV-RNA replication in ORL8 cells; assay: Comparative time course RL assay in ORL8 cells; type: cell-based, hepatitis C virus
Protocol: We next performed a time course assay (2 to 72 hrs after treatment) in the case of ORL8 cells treated with N-89 (0.1 µM or 1 µM) or IFN-α (1 IU/ml; corresponding to approximately EC80). ORL8 cells treated with IFN-α (1 IU/ml) and N-89 (1 µM) had almost the same anti-HCV kinetics over the first […] after treatment (upper panel of Fig. 4); however, within the first 12 hrs after treatment N-89-treated ORL8 cells had more rapid anti-HCV kinetics than did the IFN-α-treated cells (lower panel of Fig. 4).
Figure 4 The anti-HCV action of N-89 was faster than that of IFN-α. The ORL8 cells were treated with N-89 or IFN-α, and then RL assays were performed at 2 to 72 hrs after the treatment. The relative value (%) calculated at each time point, when the luciferase activity of non-treated cells at 24 hrs was assigned as 100%, is shown. Data are expressed as the means±standard deviation of triplicate assays. […] To evaluate this possibility, we examined the effect of VE on N-89 at the EC90 level in the ORL8 assay. […] Similar results were obtained by using N-251 (Fig. 5C and D). […] However, an antimalarial drug, artemisinin, was hardly influenced by co-treatment with VE (Fig. 5E). The value (1.9) of artemisinin was almost the same as that (3.5 or 2.5) of IFN-α or the control, respectively (Fig. 5F).

[7] = system: mice; parameters: method as in PMID 11428929, PMID 17273878, PMID 12723958; details: cited from earlier work
[8] = system: rats; parameters: method as in PMID 11428929, PMID 17273878, PMID 12723958; details: cited from earlier work
[9] = system: Plasmodium berghei; parameters: method as in PMID 11428929, PMID 17273878, PMID 12723958; details: cited from earlier work

| Compound | EC50 ([1]; ORL8 assay) [nM] | viability at 10 µM [2] [%] | potency against malaria parasites [3] | anti-HCV activity (suppression) ([1]; 1 µM in ORL8 cells, without a decrease in cell viability) [%] | EC99 value ([1]; ORL8 assay) [µM] | curing of HCV-RNA-replicating cells [4] | curing of HCV-RNA-replicating cells [5] | time after treatment at which RL activity was significantly decreased ([6]; 0.1 µM) [h] | time after treatment at which RL activity was significantly decreased ([6]; 1 µM) [h] | 50% lethal dose [7] [mg/kg] | 50% lethal dose [8] [mg/kg] | antimalarial activity in vivo [9] |
| --- | --- | --- | --- | --- | --- | --- | --- | --- | --- | --- | --- | --- |
| OCCCCCCC1COOC2(CCCCCCCCCCC2)OOC1 [N-251, 6-(1,2,6,7-tetraoxaspiro[7.11]nonadec-4-yl)hexan-1-ol] | 100 | ~30 | as potent as N-89 | – | – | – | – | – | – | – | – | – |
| C1CCCCCC2(CCCCC1)OOCCCOO2 [N-89, 1,2,6,7-Tetraoxaspiro[7.11]nonadecane] | 89 | – | – | > 99 | 1 | cured | cured | 9 | 6 | > 2000 | > 2000 | potent antimalarial activity |
